Laboratory results as given in patent US20140093513A1, “METHODS OF LOWERING PROPROTEIN CONVERSATE SUBTILISIN/KEXIN TYPE 9 (PCSK9)” (Catabasis Pharmaceuticals, Inc., priority 2012, published 2014).

Each compound was assayed on PCSK9 (assay: PCSK9 secretion assay in HepG2 cells (PCSK9 ELISA)). Settings: HepG2 cells, 16 hours incubation, at least 6 concentrations.
Type: cell-based
Protocol: HepG2 cells (from ATCC, Catalog no. HB-8065) were maintained in DMEM (Invitrogen) supplemented with 10% fetal bovine serum (Invitrogen). The day prior to the PCSK9 assay, cells are seeded in 96-well collagen coated plates at 25,000 cells/well.
The compounds of the invention were stored at −20° C. until used. The test article compound was dissolved in 100% ethanol to a 50 mM stock solution. This was then diluted in FBS to a final concentration of 1 mM. This solution was placed in a sonicating water bath for 30 minutes. Subsequent dilutions were then made in FBS supplemented with an equivalent volume of ethanol and mixed by vortexing.
HepG2 cells were seeded onto a collagen coated 96-well plate (Becton Dickinson, Catalog no. 35-4407) the day prior to the assay, as described above. The next day, the cell medium was removed, washed once with 100 μL serum free DMEM to remove any residual PCSK9, and replaced with 90 μL of serum free DMEM. Ten microliters of each compound concentration prepared in FBS was then added. Each concentration of compound was tested in triplicate. The compound was incubated with the cells overnight for 16 hours. Following this incubation, 10 μL of AlamarBlue was added to each well and cells incubated for another 2 hours. The plates were then removed and AlamarBlue fluorescence was measured (excitation, 550 nm and […]) to assess cell viability. Cell culture supernatant was then diluted […] 1×RDSP Calibrator Diluent and PCSK9 ELISA was then performed with 50 μL of this diluted sample, as per the manufacturer's instructions. The ELISA was measured on a Victor X5 multilabel plate reader (PerkinElmer) at an absorbance of 450 nm with background correction measured at 550 nm (The PCSK9 Elisa kits can be purchased from R&D System, Catalog no. DPC900).
Alternatively, an IC50 could also be obtained when this type of assay was carried out using at least 6 different concentrations of the test compounds. Table 1 lists the IC50 values for the compounds tested in this assay.

SMILES	IC50 [µM]
CC/C=C\C/C=C\C/C=C\C/C=C\C/C=C\CCCC(=O)NCCNC(=O)C(C)(C)Oc1ccc(CCNC(=O)c2ccc(Cl)cc2)cc1 [II-39, 4-chloro-N-(4-((1-((2-((5Z,8Z,11Z,14Z,17Z)-icosa-5,8,11,14,17-pentaenamido)ethyl)amino)-2-methyl-1-oxopropan-2-yl)oxy)phenethyl)benzamide]	< 25
CC/C=C\C/C=C\C/C=C\C/C=C\C/C=C\CCCC(=O)N[C@H]1CC[C@H](CNC(=O)c2cccnc2)CC1 [Compound I-41, N-(((1R,4R)-4-((5Z,8Z,11Z,14Z,17Z)-icosa-5,8,11,14,17-pentaenamido)cyclohexyl)methyl)nicotinamide]	< 25
CC/C=C\C/C=C\C/C=C\C/C=C\C/C=C\CCCC(=O)NCCCCNC(=O)c1cccnc1 [Compound I-19, N-(4-((5Z,8Z,11Z,14Z,17Z)-icosa-5,8,11,14,17-pentaenamido)butyl)nicotinamide]	< 25
CC/C=C\C/C=C\C/C=C\C/C=C\C/C=C\CCCC(=O)NCCNC(=O)c1ccccn1 [II-9, N-(2-((5Z,8Z,11Z,14Z,17Z)-icosa-5,8,11,14,17-pentaenamido)ethyl)picolinamide]	25 to 50
CC/C=C\C/C=C\C/C=C\C/C=C\C/C=C\CCCC(=O)N(C)CC1CCN(C(=O)c2cccnc2)CC1 [Compound I-48, (5Z,8Z,11Z,14Z,17Z)—N-methyl-N-((1-nicotinoylpiperidin-4-yl)methyl)icosa-5,8,11,14,17-pentaenamide]	< 25
CC/C=C\C/C=C\C/C=C\C/C=C\C/C=C\CCCC(=O)NC[C@@H]1CCCN1C(=O)c1cccnc1 [Compound I-32, (5Z,8Z,11Z,14Z,17Z)—N—(((S)-1-nicotinoylpyrrolidin-2-yl)methyl)icosa-5,8,11,14,17-pentaenamide]	< 25
CC/C=C\C/C=C\C/C=C\C/C=C\C/C=C\CCCC(=O)N1CCC[C@H]1CNC(=O)c1cccnc1 [Compound I-34, N—(((S)-1-((5Z,8Z,11Z,14Z,17Z)-icosa-5,8,11,14,17-pentaenoyl)pyrrolidin-2-yl)methyl)nicotinamide]	< 25
CC/C=C\C/C=C\C/C=C\C/C=C\C/C=C\CCCC(=O)N[C@H]1CCN(C(=O)c2cccnc2)C1 [Compound I-23, (5Z,8Z,11Z,14Z,17Z)—N—((S)-1-nicotinoylpyrrolidin-3-yl)icosa-5,8,11,14,17-pentaenamide]	< 25
CC/C=C\C/C=C\C/C=C\C/C=C\C/C=C\CCCC(=O)N[C@H]1CC[C@H](NC(=O)c2cccnc2)CC1 [Compound I-42, N-((1R,4R)-4-((5Z,8Z,11Z,14Z,17Z)-icosa-5,8,11,14,17-pentaenamido)cyclohexyl)nicotinamide]	> 50
CC/C=C\C/C=C\C/C=C\C/C=C\C/C=C\C/C=C\CCC(=O)NCCN(C)CCNC(=O)c1cccnc1 [Compound I-2]	< 25
CC/C=C\C/C=C\C/C=C\C/C=C\C/C=C\CCCC(=O)NC1CCN(C(=O)c2cccnc2)CC1 [Compound I-28, (5Z,8Z,11Z,14Z,17Z)—N-(1-nicotinoylpiperidin-4-yl)icosa-5,8,11,14,17-pentaenamide]	< 25
CC/C=C\C/C=C\C/C=C\C/C=C\C/C=C\CCCC(=O)NCCNC(=O)[C@@H]1CCCN1C(=O)c1cccnc1 [Compound I-27, (S)—N-(2-((5Z,8Z,11Z,14Z,17Z)-icosa-5,8,11,14,17-pentaenamido)ethyl)-1-nicotinoylpyrrolidine-2-carboxamide]	< 25
CC/C=C\C/C=C\C/C=C\C/C=C\C/C=C\CCCC(=O)NCCNC(=O)c1cnccn1 [II-11, N-(2-((5Z,8Z,11Z,14Z,17Z)-icosa-5,8,11,14,17-pentaenamido)ethyl)pyrazine-2-carboxamide]	> 50
CC/C=C\C/C=C\C/C=C\C/C=C\C/C=C\CCCC(=O)NCCNC(=O)[C@@H](NC(=O)c1cccnc1)C(C)C [Compound I-25, N—((S)-1-((2-((5Z,8Z,11Z,14Z,17Z)-icosa-5,8,11,14,17-pentaenamido)ethyl)amino)-3-methyl-1-oxobutan-2-yl)nicotinamide]	25 to 50
CC/C=C\C/C=C\C/C=C\C/C=C\C/C=C\CCCC(=O)NCCNC(=O)c1ccc(=O)n(C)c1 [II-7, N-(2-((5Z,8Z,11Z,14Z,17Z)-icosa-5,8,11,14,17-pentaenamido)ethyl)-1-methyl-6-oxo-1,6-dihydropyridine-3-carboxamide]	> 50

Second part, the compound after the results:

IC50 [µM]	SMILES
< 25	CC/C=C\C/C=C\C/C=C\C/C=C\C/C=C\CCCC(=O)N1CC[C@H](CNC(=O)C2=CC(=O)C(C)(c3ccccc3)O2)C1 (stereo partly drawn) [VII-5, N—(((R)-1-((5Z,8Z,11Z,14Z,17Z)-icosa-5,8,11,14,17-pentaenoyl)pyrrolidin-3-yl)methyl)-5-methyl-4-oxo-5-phenyl-4,5-dihydrofuran-2-carboxamide]
> 50	CC/C=C\C/C=C\C/C=C\C/C=C\C/C=C\CCCC(=O)N1CC[C@@H](NC(=O)c2cnc(C)c[n+]2[O-])C1 [VII-11, 2-(((R)-1-((5Z,8Z,11Z,14Z,17Z)-icosa-5,8,11,14,17-pentaenoyl)pyrrolidin-3-yl)carbamoyl)-5-methylpyrazine 1-oxide]
< 25	CC/C=C\C/C=C\C/C=C\C/C=C\C/C=C\CCCC(=O)N1CCC(NC(=O)C2=CC(=O)C(C)(c3ccccc3)O2)CC1 (stereo not shown) [VII-1, N-(1-((5Z,8Z,11Z,14Z,17Z)-icosa-5,8,11,14,17-pentaenoyl)piperidin-4-yl)-5-methyl-4-oxo-5-phenyl-4,5-dihydrofuran-2-carboxamide]
< 25	CC/C=C\C/C=C\C/C=C\C/C=C\C/C=C\CCCC(=O)N1CCC(CNC(=O)c2cnc(C)c[n+]2[O-])CC1 [VII-10, 2-(((1-((5Z,8Z,11Z,14Z,17Z)-icosa-5,8,11,14,17-pentaenoyl)piperidin-4-yl)methyl)carbamoyl)-5-methylpyrazine 1-oxide]
< 25	CC/C=C\C/C=C\C/C=C\C/C=C\C/C=C\CCCC(=O)N1CCC(NC(=O)c2c[n+]([O-])cc(C)n2)CC1 [VII-15, 3-((1-((5Z,8Z,11Z,14Z,17Z)-icosa-5,8,11,14,17-pentaenoyl)piperidin-4-yl)carbamoyl)-5-methylpyrazine 1-oxide]
< 25	CC/C=C\C/C=C\C/C=C\C/C=C\C/C=C\CCCC(=O)N1CCC[C@@H]1CNC(=O)C(C)(C)Oc1ccc(C(=O)c2ccc(Cl)cc2)cc1 [VII-23, 2-(4-(4-chlorobenzoyl)phenoxy)-N—(((R)-1-((5Z,8Z,11Z,14Z,17Z)-icosa-5,8,11,14,17-pentaenoyl)pyrrolidin-2-yl)methyl)-2-methylpropanamide]
< 25	CC/C=C\C/C=C\C/C=C\C/C=C\C/C=C\CCCC(=O)N1CCC(CNC(=O)C2=CC(=O)C(C)(c3ccccc3)O2)CC1 (stereo not shown) [VII-2, N-((1-((5Z,8Z,11Z,14Z,17Z)-icosa-5,8,11,14,17-pentaenoyl)piperidin-4-yl)methyl)-5-methyl-4-oxo-5-phenyl-4,5-dihydrofuran-2-carboxamide]
25 to 50	CC/C=C\C/C=C\C/C=C\C/C=C\C/C=C\CCCC(=O)N1CC[C@H](N(C)C(=O)C2=CC(=O)C(C)(c3ccccc3)O2)C1 (stereo partly drawn) [VII-9, N—((S)-1-((5Z,8Z,11Z,14Z,17Z)-icosa-5,8,11,14,17-pentaenoyl)pyrrolidin-3-yl)-N,5-dimethyl-4-oxo-5-phenyl-4,5-dihydrofuran-2-carboxamide]
> 50	CC/C=C\C/C=C\C/C=C\C/C=C\C/C=C\CCCC(=O)N1CCC[C@H]1CNC(=O)C(C)(C)Oc1ccc(C(=O)c2ccc(Cl)cc2)cc1 [VII-24, 2-(4-(4-chlorobenzoyl)phenoxy)-N—(((S)-1-((5Z,8Z,11Z,14Z,17Z)-icosa-5,8,11,14,17-pentaenoyl)pyrrolidin-2-yl)methyl)-2-methylpropanamide]
25 to 50	CC/C=C\C/C=C\C/C=C\C/C=C\C/C=C\CCCC(=O)N1CCC[C@H]1CNC(=O)c1cnc(C)c[n+]1[O-] [VII-14, 2-((((S)-1-((5Z,8Z,11Z,14Z,17Z)-icosa-5,8,11,14,17-pentaenoyl)pyrrolidin-2-yl)methyl)carbamoyl)-5-methylpyrazine 1-oxide]
< 25	CC/C=C\C/C=C\C/C=C\C/C=C\C/C=C\CCCC(=O)N1CC[C@H](N(C)C(=O)c2cnc(C)c[n+]2[O-])C1 [VII-17, 2-(((S)-1-((5Z,8Z,11Z,14Z,17Z)-icosa-5,8,11,14,17-pentaenoyl)pyrrolidin-3-yl)(methyl)carbamoyl)-5-methylpyrazine 1-oxide]
> 50	CC/C=C\C/C=C\C/C=C\C/C=C\C/C=C\CCCC(=O)N1CC[C@H](NC(=O)c2cnc(C)c[n+]2[O-])C1 [VII-12, 2-(((S)-1-((5Z,8Z,11Z,14Z,17Z)-icosa-5,8,11,14,17-pentaenoyl)pyrrolidin-3-yl)carbamoyl)-5-methylpyrazine 1-oxide]
25 to 50	CC/C=C\C/C=C\C/C=C\C/C=C\C/C=C\CCCC(=O)Nc1nc(C)ncc1CNC(=O)C(C)(C)Oc1ccc(C(=O)c2ccc(Cl)cc2)cc1 [VII-41, (5Z,8Z,11Z,14Z,17Z)—N-(5-((2-(4-(4-chlorobenzoyl)phenoxy)-2-methylpropanamido)methyl)-2-methylpyrimidin-4-yl)icosa-5,8,11,14,17-pentaenamide]
